Assay results published in ChEMBL document CHEMBL3508140 (2016).

Assays:
[1] = Recovery of epirubicinol-glucuronide following intravenous epirubicin at 4 mg.Kg-1 dose in rat; assay type: ADME, organism-based, SD, Plasma; conditions: in vivo
[2] = Recovery of epirubicinol-glucuronide following intravenous epirubicin at 1.5 mg.Kg-1 dose in man; assay type: ADME, organism-based, Plasma; conditions: human, in vivo
[3] = (§1) Urinary excretion of epirubicinol glucuronide following epirubicin at 50 mg.m-2 dose in cancer patients; assay type: ADME, organism-based, Urine; conditions: human, in vivo; at 50 mg/m2
[4] = (§2) Terminal half-life of epirubicin-glucuronide following intravenous epirubicin at 3 mg.Kg-1 dose in rabbit; assay type: ADME, organism-based, Oryctolagus cuniculus, New Zealand White, Plasma; conditions: in vivo
[5] = (§3) Urinary excretion of epirubicin glucuronide following epirubicin at 50 mg.m-2 dose in cancer patients; assay type: ADME, organism-based, Urine; conditions: human, in vivo; at 50 mg/m2
[6] = Recovery of epirubicinol-glucuronide following intravenous epirubicin at 4 mg.Kg-1 dose in rabbit; assay type: ADME, organism-based, Oryctolagus cuniculus, New Zealand White, Plasma; conditions: in vivo
[7] = Urinary excretion of epirubicin glucuronide following epirubicin at 60-150 mg.m-2 dose in cancer patients; assay type: ADME, organism-based, Urine; conditions: human, in vivo
[8] = Terminal half-life of epirubicinol-glucuronide following intravenous epirubicin at 3 mg.Kg-1 dose in rabbit; assay type: ADME, organism-based, Oryctolagus cuniculus, New Zealand White, Plasma; conditions: in vivo
[9] = Biliary excretion of epirubicin glucuronide following epirubicin at 50 mg.m-2 dose in cancer patients; assay type: ADME, organism-based, Bile; conditions: human, in vivo; at 50 mg/m2
[10] = Recovery of epirubicin-glucuronide following intraperitoneal epirubicin at 4 mg.Kg-1 dose in hamster; assay type: ADME, organism-based, Cricetulus griseus, Plasma; conditions: chinese hamster, in vivo, ip
[11] = Recovery of epirubicin-glucuronide following intraperitoneal epirubicin at 4 mg.Kg-1 dose in mouse; assay type: ADME, organism-based, CD-1, Plasma; conditions: in vivo, ip
[12] = AUC(0-2 h) of epirubicin-glucuronide following intravenous epirubicin at 1 mg.Kg-1 dose in rabbit; assay type: ADME, organism-based, Oryctolagus cuniculus, New Zealand White, Plasma; conditions: in vivo
[13] = Urinary excretion of epirubicinol glucuronide following epirubicin at 60 mg.m-2 dose in cancer patients; assay type: ADME, organism-based, Urine; conditions: human, in vivo; at 60 mg/m2
[14] = AUC(0-2 h) of epirubicinol-glucuronide following intravenous epirubicin at 1 mg.Kg-1 dose in rabbit; assay type: ADME, organism-based, Oryctolagus cuniculus, New Zealand White, Plasma; conditions: in vivo
[15] = Terminal half-life of epirubicinol-glucuronide following intravenous epirubicin at 1 mg.Kg-1 dose in rabbit; assay type: ADME, organism-based, Oryctolagus cuniculus, New Zealand White, Plasma; conditions: in vivo
[16] = as §3; assay type: ADME, organism-based, Urine; conditions: human, in vivo; at 50 mg/m2; remark: listed apart in the source
[17] = Urinary excretion of epirubicinol glucuronide following epirubicin at 60-150 mg.m-2 dose in cancer patients; assay type: ADME, organism-based, Urine; conditions: human, in vivo
[18] = Urinary excretion of epirubicin glucuronide following epirubicin at 75-90 mg.m-2 dose in cancer patients; assay type: ADME, organism-based, Urine; conditions: human, in vivo
[19] = as §1; assay type: ADME, organism-based, Urine; conditions: human, in vivo; at 50 mg/m2; remark: listed apart in the source
[20] = as §2; assay type: ADME, organism-based, Oryctolagus cuniculus, New Zealand White, Plasma; conditions: in vivo; remark: listed apart in the source
[21] = Biliary excretion of epirubicinol glucuronide following epirubicin at 50 mg.m-2 dose in cancer patients; assay type: ADME, organism-based, Bile; conditions: human, in vivo; at 50 mg/m2
[22] = Recovery of epirubicin-glucuronide following intravenous epirubicin at 1.5 mg.Kg-1 dose in man; assay type: ADME, organism-based, Plasma; conditions: human, in vivo
[23] = AUC(0-2 h) of epirubicinol-glucuronide following intravenous epirubicin at 3 mg.Kg-1 dose in rabbit; assay type: ADME, organism-based, Oryctolagus cuniculus, New Zealand White, Plasma; conditions: in vivo
[24] = (§4) Terminal half-life of epirubicin-glucuronide following intravenous epirubicin at 1 mg.Kg-1 dose in rabbit; assay type: ADME, organism-based, Oryctolagus cuniculus, New Zealand White, Plasma; conditions: in vivo
[25] = Recovery of epirubicin-glucuronide following intravenous epirubicin at 4 mg.Kg-1 dose in rat; assay type: ADME, organism-based, SD, Plasma; conditions: in vivo
[26] = Recovery of epirubicin-glucuronide following intravenous epirubicin at 4 mg.Kg-1 dose in rabbit; assay type: ADME, organism-based, Oryctolagus cuniculus, New Zealand White, Plasma; conditions: in vivo
[27] = Recovery of epirubicinol-glucuronide following intraperitoneal epirubicin at 4 mg.Kg-1 dose in mouse; assay type: ADME, organism-based, CD-1, Plasma; conditions: in vivo, ip
[28] = Urinary excretion of epirubicinol glucuronide following epirubicin at 75-90 mg.m-2 dose in cancer patients; assay type: ADME, organism-based, Urine; conditions: human, in vivo
[29] = Urinary excretion of epirubicin glucuronide following epirubicin at 60 mg.m-2 dose in cancer patients; assay type: ADME, organism-based, Urine; conditions: human, in vivo; at 60 mg/m2
[30] = as §4; assay type: ADME, organism-based, Oryctolagus cuniculus, New Zealand White, Plasma; conditions: in vivo; remark: listed apart in the source
[31] = Recovery of epirubicinol-glucuronide following intraperitoneal epirubicin at 4 mg.Kg-1 dose in hamster; assay type: ADME, organism-based, Cricetulus griseus, Plasma; conditions: chinese hamster, in vivo, ip
[32] = AUC(0-2 h) of epirubicin-glucuronide following intravenous epirubicin at 3 mg.Kg-1 dose in rabbit; assay type: ADME, organism-based, Oryctolagus cuniculus, New Zealand White, Plasma; conditions: in vivo
[33] = Biliary excretion of epirubicinol following epirubicin at 50 mg.m-2 dose in cancer patients; assay type: ADME, organism-based, Bile; conditions: human, in vivo; at 50 mg/m2
[34] = Recovery of epirubicinol following intraperitoneal epirubicin at 4 mg.Kg-1 dose in mouse; assay type: ADME, organism-based, CD-1, Plasma; conditions: in vivo, ip
[35] = Recovery of epirubicinol following intravenous epirubicin at 4 mg.Kg-1 dose in rabbit; assay type: ADME, organism-based, Oryctolagus cuniculus, New Zealand White, Plasma; conditions: in vivo
[36] = Recovery of epirubicinol following intravenous epirubicin at 1.5 mg.Kg-1 dose in man; assay type: ADME, organism-based, Plasma; conditions: human, in vivo
[37] = AUC(0-24 h) of epirubicinol following intravenous epirubicin at 3 mg.Kg-1 dose in rabbit; assay type: ADME, organism-based, Oryctolagus cuniculus, New Zealand White, Plasma; conditions: in vivo
[38] = AUC values (0-48 h) of epirubicinol in tumor following single intravenous epirubicin at 10 mg.Kg-1 dose in female mouse bearing colon tumor; assay type: ADME, organism-based, BALB/c, Neoplasm; conditions: in vivo
[39] = (§5) Urinary elimination of 4'-epiadriamycinol following intravenous bolus 4'-epiadriamycin at 10 mg.Kg-1 dose in rat; assay type: ADME, organism-based, SD, Urine; conditions: in vivo
[40] = AUC values (0-48 h) of epirubicinol in heart following single intravenous epirubicin at 10 mg.Kg-1 dose in female mouse bearing colon tumor; assay type: ADME, organism-based, BALB/c; conditions: in vivo
[41] = Detection of epirubicinol in plasma following single intravenous epirubicin at 10 mg.Kg-1 dose in female mouse bearing colon tumor; assay type: ADME, organism-based, BALB/c; conditions: in vivo
[42] = Urinary excretion of epirubicinol following epirubicin at 60 mg.m-2 dose in cancer patients; assay type: ADME, organism-based, Urine; conditions: human, in vivo; at 60 mg/m2
[43] = AUC values (0-48 h) of epirubicinol in plasma following single intravenous epirubicin at 10 mg.Kg-1 dose in female mouse bearing colon tumor; assay type: ADME, organism-based, BALB/c; conditions: in vivo
[44] = as §5; assay type: ADME, organism-based, SD, Urine; conditions: in vivo; remark: listed apart in the source
[45] = Detection of epirubicinol in heart following single intravenous epirubicin at 10 mg.Kg-1 dose in female mouse bearing colon tumor; assay type: ADME, organism-based, BALB/c; conditions: in vivo
[46] = (§6) Urinary excretion of epirubicinol following epirubicin at 50 mg.m-2 dose in cancer patients; assay type: ADME, organism-based, Urine; conditions: human, in vivo; at 50 mg/m2
[47] = as §6; assay type: ADME, organism-based, Urine; conditions: human, in vivo; at 50 mg/m2; remark: listed apart in the source
[48] = Recovery of epirubicinol following intraperitoneal epirubicin at 4 mg.Kg-1 dose in hamster; assay type: ADME, organism-based, Cricetulus griseus, Plasma; conditions: chinese hamster, in vivo, ip
[49] = Urinary excretion of epirubicinol following epirubicin at 75-90 mg.m-2 dose in cancer patients; assay type: ADME, organism-based, Urine; conditions: human, in vivo
[50] = AUC(0-24 h) of epirubicinol following intravenous epirubicin at 1 mg.Kg-1 dose in rabbit; assay type: ADME, organism-based, Oryctolagus cuniculus, New Zealand White, Plasma; conditions: in vivo
[51] = Detection of epirubicinol in tumor following single intravenous epirubicin at 10 mg.Kg-1 dose in female mouse bearing colon tumor; assay type: ADME, organism-based, BALB/c, Neoplasm; conditions: in vivo
[52] = Urinary excretion of epirubicinol following epirubicin at 60-150 mg.m-2 dose in cancer patients; assay type: ADME, organism-based, Urine; conditions: human, in vivo
[53] = as §5; assay type: ADME, organism-based, SD, Urine; conditions: in vivo; remark: listed apart in the source
[54] = Recovery of epirubicinol following intravenous epirubicin at 4 mg.Kg-1 dose in rat; assay type: ADME, organism-based, SD, Plasma; conditions: in vivo

COc1cccc2c1C(=O)c1c(O)c3c(c(O)c1C2=O)C[C@@](O)(C(=O)CO)C[C@@H]3O[C@H]1C[C@H](N)[C@@H](O[C@@H]2O[C@H](C(=O)O)[C@@H](O)[C@H](O)[C@H]2O)[C@H](C)O1
Compound recovery [1]: 0 10^-9M | Compound recovery [2]: 90 10^-9M | Compound recovery [3]: 1.7% | t1/2 [4]: OUTCOME = Not calculated | Compound recovery [5]: 4.6% | Compound recovery [6]: 0.5 10^-9M | Compound recovery [7]: 1.3% | t1/2 [8]: 23.4 min | Compound recovery [9]: 4.6% | Compound recovery [10]: 0 10^-9M | Compound recovery [11]: 0 10^-9M | AUC [12]: 7.64 ng·h/mL | Compound recovery [13]: 0.8% | AUC [14]: 1.47 ng·h/mL | t1/2 [15]: 12.6 min | Compound recovery [16]: 3.3% | Compound recovery [17]: 0.3% | Compound recovery [18]: 3.2% | Compound recovery [19]: 0.4% | t1/2 [20]: 29.4 min | Compound recovery [21]: 1.9% | Compound recovery [22]: 460 10^-9M | AUC [23]: 4.01 ng·h/mL | t1/2 [24]: 61.2 min | Compound recovery [25]: 0 10^-9M | Compound recovery [26]: 1.7 10^-9M | Compound recovery [27]: 0 10^-9M | Compound recovery [28]: 0.8% | Compound recovery [29]: 3.2% | t1/2 [30]: 9 min | Compound recovery [31]: 0 10^-9M | AUC [32]: 15.83 ng·h/mL

COc1cccc2c1C(=O)c1c(O)c3c(c(O)c1C2=O)C[C@@](O)(C(O)CO)C[C@@H]3O[C@H]1C[C@H](N)[C@@H](O)[C@H](C)O1 (some centres undefined)
Compound recovery [33]: 6.5% | Compound recovery [34]: 0.2 10^-9M | Compound recovery [35]: 23 10^-9M | Compound recovery [36]: 15 10^-9M | AUC [37]: 204.86 ng·h/mL | AUC [38]: 0 nmol·min/g | Compound recovery [39]: 0.024% | AUC [40]: 46 nmol·min/g | Compound recovery [41]: OUTCOME = Observed | Compound recovery [42]: 0.9% | AUC [43]: 0.5 nmol·min/mL | Compound recovery [44]: 0.03% | Compound recovery [45]: OUTCOME = Observed | Compound recovery [46]: 0.6% | Compound recovery [47]: 4.1% | Compound recovery [48]: 3.3 10^-9M | Compound recovery [49]: 0.8% | AUC [50]: 69.46 ng·h/mL | Compound recovery [51]: OUTCOME = Not detected/not observed | Compound recovery [52]: 0.5% | Compound recovery [53]: 0.044% | Compound recovery [54]: 0.4 10^-9M
